Measured values taken from patent publication US20230225991A1, “COMPOUNDS FOR USE IN THE TREATMENT OF ACUTE INTERMITTENT PORPHYRIA” (VESTLANDETS INNOVASJONSSELSKAP AS, priority 2019, published 2023).

Columns and labels:
[1] = biological target: T1, HMBS in HepG2 cells over-expressing HMBS (Homo sapiens, UniProt P08397); experiment: HMBS protein level in WT-HMBS stably transfected HepG2 cells (western immunoblot); type: cell-based; conditions: 0-168 μM compound, 2% DMSO, 24 h; quantitative western immunoblotting
T1 construct: expressed in transfected cells; host or cells: HepG2 (stably transfected, G418-selected)
T1 sequence (P08397 1-361): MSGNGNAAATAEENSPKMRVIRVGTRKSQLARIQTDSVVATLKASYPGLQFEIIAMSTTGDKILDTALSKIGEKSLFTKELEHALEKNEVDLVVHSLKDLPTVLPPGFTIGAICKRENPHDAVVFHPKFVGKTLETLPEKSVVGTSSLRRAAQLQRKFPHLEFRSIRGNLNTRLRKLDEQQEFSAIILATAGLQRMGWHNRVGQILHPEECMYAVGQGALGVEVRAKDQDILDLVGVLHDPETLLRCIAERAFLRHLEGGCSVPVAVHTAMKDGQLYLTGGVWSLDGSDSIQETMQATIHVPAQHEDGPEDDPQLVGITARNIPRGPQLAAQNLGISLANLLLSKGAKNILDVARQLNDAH
Description: The human hepatoma HepG2 cells were obtained from Leibniz-Institut DSMZ—Deutsche Sammlung von Mikroorganismen und Zellkulturen GmbH. Cells were maintained in RPMI 1640, GlutaMAX™ (Thermo Fisher Scientific) medium supplemented with 10% heat-inactivated fetal bovine serum and 1% penicillin-streptomycin (Thermo Fisher Scientific) in a humidified incubator with 5% CO2 at 37° C. HMBS cDNA was inserted into the pcDNA3.1(+) cloning vector (Thermo Fisher Scientific). The HepG2 cells were then transfected with the pcDNA3.1(+) vector containing HMBS using FuGENE®HD Transfection Reagent (Promega, Madison, Wis.) according to the manufacturer's recommendations. Stably transfected clones were selected for resistance to the neomycin analogue G418 (Thermo Fisher Scientific). WT-HMBS transfected HepG2 cells (2×10^6) were seeded and grown for 22 h before compounds were added to final concentrations of 0, 40, 84, 120 and 168 μM in 2% DMSO. Cells were harvested after 24 h and analyzed as described below. […]
Cell lysate samples (20 μg total protein) were separated by electrophoresis and subsequently transferred to a PVDF transfer membrane (Bio-Rad). […] Chemiluminescence of secondary Ab-HRP conjugates was elicited using Luminata™ Crescendo Western HRP Substrate (Merck Millipore, Burlington, Mass.), imaged with Gel Doc™ XR+ (Bio-Rad) and quantified using Image Lab software (Bio-Rad). […]

WT-HMBS = biological target: T2, WT-HMBS (Homo sapiens, UniProt P08397); experiment: DSF thermal upshift (ΔTm) of HMBS; type: binding
T2 construct: Full-length HMBS was cloned into pET-28a(+)-TEV vector and transformed into BL21 (DE3) cells for expression; 6xHis (N, cleaved yes); TEV protease cleavage site (N, cleaved yes); made in house; host or cells: E. coli BL21 (DE3)
T2 sequence (P08397 1-361): T1 sequence (P08397 1-361)
Description: Compounds BG-2, BG-3 and BG-4 were tested on recombinant WT-HMBS using DSF and tryptic proteolysis.

ΔTm at 122 µM (WT-HMBS; Table 3, average compound concentration 122 μM (2% DMSO))	Structure (SMILES)	Relative amount of HMBS in HepG2 cells [1]	ΔTm at 122 µM (WT-HMBS; thermal upshift at y = 0.5 in scaled fluorescence curves, average compound concentration 122 μM (2% DMSO))
	O=Cc1cc(Cc2ccccc2Cl)cc([N+](=O)[O-])c1O [BG-1]	increasing relative amount of HMBS with increasing concentration	1.6 °C
4.9 °C	O=C(c1ccccc1)c1ccc(Cl)c([N+](=O)[O-])c1 [BG-2]	increased the HMBS protein levels similarly to BG-1	
